Values quoted from earlier work as cited in patent publication US20120164100A1, “TEMPERATURE SENSITIVE HYDROGEL AND BLOCK COPOLYMERS” (priority 2010, published 2012).

In the case of `CCCCC[C@H](O)/C=C/[C@H]1[C@H](O)CC(=O)[C@@H]1C/C=C\CCCC(=O)O` [PGE2, Prostaglandin E2], the solubility (pH above 6, Critical Micelle Concentration) is given as “about 5 mg/mL” and the half life (physiological condition) is given as “very short”.
